Experimental findings from US4411898A, “7-[2-Oxyimino-2-(2-aminothiazol-4-yl)acetamido]-3-(1-carboxya lkyl-1H-tetrazol-5-yl)thiomethyl-3-cephem-4-carboxylic acid compounds” (Fujisawa Pharmaceutical Co., Ltd., priority 1977, dated 1983) are described below.

Common to all, as to assay: In vitro antibacterial activity, two-fold agar-plate dilution method
What all share (type): cell-based
Holding throughout (conditions): HI-agar, 37° C., 20 hours, read-out: minimal inhibitory concentration (MIC)

The subject of assay [1] is Proteus vulgaris 2. The protocol:
(§1) In vitro antibacterial activity was determined by the two-fold agar-plate dilution method as described below.
(§2) One loopful of an overnight culture of each test strain in Trypticase-soy broth (10^8 viable cells per ml.) was streaked on heart infusion agar (HI-agar) containing graded concentrations of test compounds, and minimal inhibitory concentration (MIC) was expressed in terms of μg/ml. after incubation at 37° C. for 20 hours.

Assay [2] deals with Staphylococcus aureus 209P JC-1. The method, then: as §1, §2
Assay [3] deals with Klebsiella aerogenes 417. The protocol:
as §1, §2

For assay [4], the system named is Proteus mirabilis 525. The protocol: as §1, §2
In assay [5] the test system is Escherichia coli 324. The method, then: as §1, §2

In brackets after ≈: the same amount, converted by molar mass. Structures can show the parent of a compound that is named as a salt.

On to `CCCON=C(C(=O)NC1C(=O)N2C(C(=O)O)=C(CSc3nnnn3CC(=O)O)CSC12)c1csc(N)n1` (stereo not drawn) [Test Compound (1), 7-[2-n-Propoxyimino-2-(2-amino-1,3-thiazol-4-yl)acetamido]-3-(1-carboxymethyl-1H-tetrazol-5-yl)thiomethyl-3-cephem-4-carboxylic acid (syn isomer)], for which the MIC in assay [1] came out at 0.39 µg/mL (≈ 0.668 µM); in assay [2], 12.5 µg/mL (≈ 21.4 µM).

Consider `C=CCON=C(C(=O)NC1C(=O)N2C(C(=O)O)=C(CSc3nnnn3CC(=O)O)CSC12)c1csc(N)n1` (stereo not drawn) [Test Compound (2), 7-[2-Allyloxyimino-2-(2-amino-1,3-thiazol-4-yl)acetamido]-3-(1-carboxymethyl-1H-tetrazol-5-yl)thiomethyl-3-cephem-4-carboxylic acid hydrochloride (syn isomer)], for which the MIC in assay [1] is 0.78 µg/mL; in assay [2], 12.5 µg/mL.

Turning to `C#CCON=C(C(=O)NC1C(=O)N2C(C(=O)O)=C(CSc3nnnn3CC(=O)O)CSC12)c1csc(N)n1` (stereo not drawn) [Test Compound (3), 7-[2-(2-Propynyloxyimino)-2-(2-amino-1,3-thiazol-4-yl)acetamido]-3-(1-carboxymethyl-1H-tetrazol-5-yl)thiomethyl-3-cephem-4-carboxylic acid (syn isomer)], the results for the MIC in assay [1] and in assay [2] were 0.025 µg/mL (≈ 0.0431 µM) and 12.5 µg/mL (≈ 21.6 µM), respectively.

Consider `CON=C(C(=O)NC1C(=O)N2C(C(=O)O)=C(CSc3nnnn3CC(=O)O)CSC12)c1csnn1` (stereo not drawn) [Test Compound (4), 7-[2-Methoxyimino-2-(1,2,3-thiadiazol-4-yl)acetamido]-3-(1-carboxymethyl-1H-tetrazol-5-yl)thiomethyl-3-cephem-4-carboxylic acid (syn isomer)], for which the values for the MIC in assay [3], in assay [4] and in assay [5] were 0.39 µg/mL (≈ 0.72 µM), 0.2 µg/mL (≈ 0.369 µM) and 0.2 µg/mL (≈ 0.369 µM), respectively.
